Columns and labels:
Tpk2-as [1] = assay: Intracellular H3K4me3 in Tpk2-as mutant with 1NM-PP1; type: cell-based, budding yeast (Saccharomyces cerevisiae); settings: 25 μM 1NM-PP1, 0.5 hr, Western blot
Description: (§1) To examine the effect of glucose on histone modifications, yeast cells were grown in 2% glucose-containing YPD (Yeast Extract Peptone Dextrose) medium until OD600 of 0.7–1.0. Cells were then collected, washed and resuspended in YP medium for 3 hr followed by treatment with different concentrations of glucose for 0.5 hr. For 1NM-PP1 (MCE, HY-13804) treatment, cells were grown in 2% YPD until OD600 of 0.7–1.0. Cells were then treated with 25 μM 1NM-PP1 for 0.5 hr. For FBP and pyruvate treatment, cells were pre-treated with Zymolase (Mpbio, 08320921) to increase the permeability. In brief, cells were grown in YPD medium until OD600 of 0.7–1.0, centrifuged and resuspended in 1 ml SB buffer (100 mM Sorbitol, 20 mM Tris pH 7.4). 10 μl Zymolase was then added and incubated at 30 °C for 15 min. The spheroplasts were washed and cultured in YPD medium containing different concentrations of FBP and pyruvate for 3 hr.
(§2) Cells were grown in 5 ml YPD or selective medium until OD600 of 0.7–1.0. Cells were harvested and lysed in alkaline lysis buffer (2 M NaOH, 8% 2-mercaptoethanol). After centrifugation, the protein pellet was resuspended in 150 μl 2×SDS-sample buffer. Protein samples were separated by 8–15% SDS-PAGE and transferred to PVDF membrane. […] The protein bands were visualized using the ECL Chemiluminescence Detection Kit (Bio-Rad, 170–5061) and quantified with Image J software (v.1.8.0). […]

Tpk3-as = assay: Intracellular H3K4me3 in Tpk3-as mutant with 1NM-PP1; type: cell-based, budding yeast (Saccharomyces cerevisiae); settings: 25 μM 1NM-PP1, 0.5 hr, Western blot
Description: as §1, §2

WT Tpk2 = assay: In vitro kinase assay, WT Tpk2, Jhd2 substrate; type: biochemical, budding yeast (Saccharomyces cerevisiae); settings: 25 μM 1NM-PP1, in vitro kinase assay, 30 °C, Western blot
Description: (§3) 0–300 ng purified Jhd2 was mixed with or without 200 ng TAP purified Tpk2 in 2×kinase reaction buffer (100 mM Tris-HCl pH 7.4, 100 mM MgCl2, 10 mM ATP, 0.2 μM PMSF, 1 mM Na3VO4, 5% glycerol) at 30 °C. Equal aliquots were taken at different time points, and the reaction was quenched by adding 2×SDS-PAGE loading buffer and incubated at 95 °C for 10 min. Boiled samples were resolved on 10% SDS-PAGE and subjected to Western blot analysis.

Tpk2-as [2] = assay: In vitro kinase assay, Tpk2-as, Jhd2 substrate; type: biochemical, budding yeast (Saccharomyces cerevisiae); settings: 25 μM 1NM-PP1, in vitro kinase assay, 30 °C, Western blot
Description: as §3

WT cells = assay: Intracellular Jhd2 phosphorylation in WT cells with 1NM-PP1; type: cell-based, budding yeast (Saccharomyces cerevisiae); settings: 25 μM 1NM-PP1, 0.5 hr, Western blot
Description: as §1, §2

Tpk1-as = assay: Intracellular H3K4me3 in Tpk1-as mutant with 1NM-PP1; type: cell-based, budding yeast (Saccharomyces cerevisiae); settings: 25 μM 1NM-PP1, 0.5 hr, Western blot
Description: as §1, §2

Tpk2-as [3] = assay: Intracellular Jhd2 phosphorylation in Tpk2-as mutant with 1NM-PP1; type: cell-based, budding yeast (Saccharomyces cerevisiae); settings: 25 μM 1NM-PP1, 0.5 hr, Western blot
Description: as §1, §2

CC(C)(C)n1nc(Cc2cccc3ccccc23)c2c(N)ncnc21 [1NM-PP1]
intracellular H3K4me3, Tpk2-as mutant (Tpk2-as [1]): significantly reduced by 1NM-PP1 in Tpk2-as mutant
intracellular H3K4me3, Tpk3-as mutant (Tpk3-as): significantly reduced by 1NM-PP1 in Tpk2-as mutant but not Tpk1-as and Tpk3-as mutants
Jhd2 phosphorylation in vitro, WT Tpk2 (WT Tpk2): Jhd2 was phosphorylated by WT Tpk2 but not Tpk2-as mutant when treated with 25 μM 1NM-PP1
inhibition of Tpk2-catalyzed Jhd2 phosphorylation in vitro, Tpk2-as (Tpk2-as [2]): directly inhibited Tpk2-catalyzed Jhd2 phosphorylation
intracellular Jhd2 phosphorylation, WT cells (WT cells): significantly reduced in Tpk2-as mutant but not WT cells
intracellular H3K4me3, Tpk1-as mutant (Tpk1-as): significantly reduced by 1NM-PP1 in Tpk2-as mutant but not Tpk1-as and Tpk3-as mutants
intracellular Jhd2 phosphorylation, Tpk2-as mutant (Tpk2-as [3]): significantly reduced in Tpk2-as mutant

Reference: publication PMC9515143, “Phosphorylation of Jhd2 by the Ras-cAMP-PKA(Tpk2) pathway regulates histone modifications and autophagy” (Nature Communications, 2022)
